Measurements reported in patent US8309552B2, “Immunomodulating heterocyclic compounds” (Medigene AG, priority 2003, dated 2012).
pEC50: −log10 of the molar value.

Target: T1, CD80-CD28 interaction (Homo sapiens, UniProt P33681)
T1 sequence (P33681 35-242 limits assumed): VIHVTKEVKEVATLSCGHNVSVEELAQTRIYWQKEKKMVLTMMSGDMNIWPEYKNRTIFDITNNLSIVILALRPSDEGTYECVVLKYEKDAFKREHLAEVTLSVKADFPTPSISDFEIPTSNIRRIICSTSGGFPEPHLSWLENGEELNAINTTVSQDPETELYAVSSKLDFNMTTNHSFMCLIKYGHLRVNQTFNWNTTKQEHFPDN
Test: Homogenous Time Resolved Fluorescence (HTRF) assay, cell free
Format: binding
Settings: cell-free HTRF, compound concentration series 100 μM-1.7 nM, 4 hours at room temperature; read-out: Activity (EC50 in the HTRF assay)
Method: Homogenous Time Resolved Fluorescence Assay
The examples described above were tested in a cell free Homogenous Time Resolved Fluorescence (HTRF) assay to determine their activity as inhibitors of the CD80-CD28 interaction.
In the assay, europium and allophycocyanin (APC) are associated with CD28 and CD80 indirectly (through antibody linkers) to form a complex, which brings the europium and APC into close proximity to generate a signal. The complex comprises the following six proteins: fluorescent label 1, linker antibody 1, CD28 fusion protein, CD80 fusion protein, linker antibody 2, and fluorescent label 2. The table below describes these reagents in greater detail.
On formation of the complex, europium and APC are brought into proximity and a signal is generated.
Non-specific interaction was measured by substituting a mouse Fab fragment (C215) for the CD80 mouse Fab fragment fusion protein (1.9 μg/ml). The assay was carried out in black 384 well plates in a final volume of 30 μl. Assay buffer: 50 mM Tris-HCl, 150 mM NaCl pH7.8, containing 0.1% BSA (w/v) added just prior to use.
Compounds were added to the above reagents in a concentration series ranging between 100 μM-1.7 nM. The reaction was incubated for 4 hours at room temperature. Dual measurements were made using a Wallac Victor 1420 Multilabel Counter. First measurement: excitation 340 nm, emission 665 nm, delay 50 μs, window time 200 μs. second measurement: excitation 340 nm, emission 615 nm, delay 50 μs, window time 200 μs. Counts were automatically corrected for fluorescence crossover, quenching and background. The EC50 activities of compounds tested are recorded as: EC50:*=>10 μM,**=1-10 μM,***=<1 μM.

| Compound | pEC50 |
| --- | --- |
| CCOC(=O)CCC(NC(=O)c1ccc(-n2[nH]c3c(nnc4ccccc43)c2=O)cc1)C(=O)OCC (centres unmarked) [Example 74] | 5.00 to 6.00 |
| CC(NC(=O)c1ccc(-n2[nH]c3c(nnc4ccccc43)c2=O)cc1)C1CCCCC1 (centres unmarked) [Example 75] | 5.00 to 6.00 |
| O=C(NCCc1ccccn1)c1ccc(-n2[nH]c3c(nnc4ccccc43)c2=O)cc1 [Example 76] | 5.00 to 6.00 |
| CCSCCNC(=O)c1ccc(-n2[nH]c3c(nnc4ccccc43)c2=O)cc1 [Example 77] | > 6.00 |
| O=C(NC1CC1)c1ccc(-n2[nH]c3c(nnc4ccccc43)c2=O)cc1 [Example 78] | 5.00 to 6.00 |
| O=C(NCCCN1CCCC1)c1ccc(-n2[nH]c3c(nnc4ccccc43)c2=O)cc1 [Example 79] | > 6.00 |
| O=C(NC1CCCN(Cc2ccccc2)C1)c1ccc(-n2[nH]c3c(nnc4ccccc43)c2=O)cc1 (centres unmarked) [Example 80] | > 6.00 |
| CCN(CC)CCCC(C)NC(=O)c1ccc(-n2[nH]c3c(nnc4ccccc43)c2=O)cc1 (centres unmarked) [Example 81] | > 6.00 |
| CC(C)CCNC(=O)c1ccc(-n2[nH]c3c(nnc4ccccc43)c2=O)cc1 [Example 82] | 5.00 to 6.00 |
| O=C(NC1CCCC1)c1ccc(-n2[nH]c3c(nnc4ccccc43)c2=O)cc1 [Example 83] | 5.00 to 6.00 |
| CCCNC(=O)c1ccc(-n2[nH]c3c(nnc4ccccc43)c2=O)cc1 [Example 84] | 5.00 to 6.00 |
| CC(C)(C)CCNC(=O)c1ccc(-n2[nH]c3c(nnc4ccccc43)c2=O)cc1 [Example 85] | 5.00 to 6.00 |
| O=C(NC1CCN(Cc2ccccc2)CC1)c1ccc(-n2[nH]c3c(nnc4ccccc43)c2=O)cc1 [Example 86] | > 6.00 |
| O=C(NCC1CCCCCC1)c1ccc(-n2[nH]c3c(nnc4ccccc43)c2=O)cc1 [Example 87] | < 5.00 |
| CC(NC(=O)c1ccc(-n2[nH]c3c(nnc4ccccc43)c2=O)cc1)C(C)(C)C (centres unmarked) [Example 88] | 5.00 to 6.00 |
| CC(C)C(C)NC(=O)c1ccc(-n2[nH]c3c(nnc4ccccc43)c2=O)cc1 (centres unmarked) [Example 89] | > 6.00 |
| O=C(NC1CCCC1OCc1ccccc1)c1ccc(-n2[nH]c3c(nnc4ccccc43)c2=O)cc1 (centres unmarked) [Example 90] | 5.00 to 6.00 |
| CC(C)(C)OC(=O)NCCCCNC(=O)c1ccc(-n2[nH]c3c(nnc4ccccc43)c2=O)cc1 [Example 91] | > 6.00 |
| CCCCCCCC(C)NC(=O)c1ccc(-n2[nH]c3c(nnc4ccccc43)c2=O)cc1 (centres unmarked) [Example 92] | < 5.00 |
| COC(=O)C(NC(=O)c1ccc(-n2[nH]c3c(nnc4ccccc43)c2=O)cc1)C(C)C (centres unmarked) [Example 93] | 5.00 to 6.00 |
| O=C(NC1CCN(Cc2ccccc2)C1)c1ccc(-n2[nH]c3c(nnc4ccccc43)c2=O)cc1 (centres unmarked) [Example 94] | > 6.00 |
| O=C(NCCc1cccnc1)c1ccc(-n2[nH]c3c(nnc4ccccc43)c2=O)cc1 [Example 95] | > 6.00 |
| CC(C)CCC(C)NC(=O)c1ccc(-n2[nH]c3c(nnc4ccccc43)c2=O)cc1 (centres unmarked) [Example 96] | 5.00 to 6.00 |

| Compound | pEC50 |
| --- | --- |
| CN(CCNC(=O)c1ccc(-n2[nH]c3c(nnc4ccccc43)c2=O)cc1)C(=O)OC(C)(C)C [Example 97] | 5.00 to 6.00 |
| O=C(Nc1ccc(N2CCCCC2)cc1)c1ccc(-n2[nH]c3c(nnc4ccccc43)c2=O)cc1 [Example 98] | 5.00 to 6.00 |
| CC(CCCC(C)(C)O)NC(=O)c1ccc(-n2[nH]c3c(nnc4ccccc43)c2=O)cc1 (centres unmarked) [Example 99] | 5.00 to 6.00 |
| CC(C)(C)OC(=O)N1CCN(CCNC(=O)c2ccc(-n3[nH]c4c(nnc5ccccc54)c3=O)cc2)CC1 [Example 101] | > 6.00 |
| O=C(NCCN1CCNCC1)c1ccc(-n2[nH]c3c(nnc4ccccc43)c2=O)cc1 [Example 102] | 5.00 to 6.00 |
| CC1(C)CC(NC(=O)c2ccc(-n3[nH]c4c(nnc5ccccc54)c3=O)cc2)CC(C)(C)N1 [Example 103] | > 6.00 |
| CCOC(=O)N1CCC(NC(=O)c2ccc(-n3[nH]c4c(nnc5ccccc54)c3=O)cc2)CC1 [Example 104] | 5.00 to 6.00 |
| CC(CCc1ccccc1)NC(=O)c1ccc(-n2[nH]c3c(nnc4ccccc43)c2=O)cc1 (centres unmarked) [Example 105] | < 5.00 |
| COC(CNC(=O)c1ccc(-n2[nH]c3c(nnc4ccccc43)c2=O)cc1)OC [Example 106] | 5.00 to 6.00 |
| CCC(C)CNC(=O)c1ccc(-n2[nH]c3c(nnc4ccccc43)c2=O)cc1 (centres unmarked) [Example 107] | 5.00 to 6.00 |
| CC(C)NCCNC(=O)c1ccc(-n2[nH]c3c(nnc4ccccc43)c2=O)cc1 [Example 108] | > 6.00 |
| O=C(NCCNCCO)c1ccc(-n2[nH]c3c(nnc4ccccc43)c2=O)cc1 [Example 109] | > 6.00 |
| CC(C)NCCCNC(=O)c1ccc(-n2[nH]c3c(nnc4ccccc43)c2=O)cc1 [Example 110] | > 6.00 |
| O=C(NCCCO)c1ccc(-n2[nH]c3c(nnc4ccccc43)c2=O)cc1 [Example 111] | 5.00 to 6.00 |
| O=C(NCCCCCO)c1ccc(-n2[nH]c3c(nnc4ccccc43)c2=O)cc1 [Example 112] | > 6.00 |
| CCCCCCNC(=O)c1ccc(-n2[nH]c3c(nnc4ccccc43)c2=O)cc1 [Example 113] | 5.00 to 6.00 |
| NS(=O)(=O)c1ccc(CCNC(=O)c2ccc(-n3[nH]c4c(nnc5ccccc54)c3=O)cc2)cc1 [Example 114] | 5.00 to 6.00 |
| COC(=O)CNC(=O)c1ccc(-n2[nH]c3c(nnc4ccccc43)c2=O)cc1 [Example 115] | 5.00 to 6.00 |
| CCOC(=O)CCNC(=O)c1ccc(-n2[nH]c3c(nnc4ccccc43)c2=O)cc1 [Example 116] | < 5.00 |
| CC(C)(C)OC(=O)NCCCCCCNC(=O)c1ccc(-n2[nH]c3c(nnc4ccccc43)c2=O)cc1 [Example 117] | 5.00 to 6.00 |
| CCOC(=O)C(C)NC(=O)c1ccc(-n2[nH]c3c(nnc4ccccc43)c2=O)cc1 (centres unmarked) [Example 118] | 5.00 to 6.00 |
| COCC(C)NC(=O)c1ccc(-n2[nH]c3c(nnc4ccccc43)c2=O)cc1 (centres unmarked) [Example 119] | 5.00 to 6.00 |
| CC(NC(=O)c1ccc(-n2[nH]c3c(nnc4ccccc43)c2=O)cc1)C1CCCCC1 (centres unmarked) [Example 120] | 5.00 to 6.00 |

| Compound | pEC50 |
| --- | --- |
| CC1C(NC(=O)c2ccc(-n3[nH]c4c(nnc5ccccc54)c3=O)cc2)CC2CC1C2(C)C (centres unmarked) [Example 121] | 5.00 to 6.00 |
| CC1C(NC(=O)c2ccc(-n3[nH]c4c(nnc5ccccc54)c3=O)cc2)CC2CC1C2(C)C (centres unmarked) [Example 122] | < 5.00 |
| O=C(Nc1ccc(-n2[nH]c3c(nnc4ccccc43)c2=O)cc1)NC1CCN(Cc2ccccc2)CC1 [Example 123] | 5.00 to 6.00 |
| CC(C)CC(C)NC(=O)Nc1ccc(-n2[nH]c3c(nnc4ccccc43)c2=O)cc1 (centres unmarked) [Example 124] | < 5.00 |
| O=C(NCCN1CCCCC1)Nc1ccc(-n2[nH]c3c(nnc4ccccc43)c2=O)cc1 [Example 125] | 5.00 to 6.00 |
| O=C(NCc1ccc(F)cc1)Nc1ccc(-n2[nH]c3c(nnc4ccccc43)c2=O)cc1 [Example 126] | < 5.00 |
| O=C(Nc1ccc(-n2[nH]c3c(nnc4ccccc43)c2=O)cc1)NC1CCCCC1 [Example 127] | < 5.00 |
| CCOCCCNC(=O)Nc1ccc(-n2[nH]c3c(nnc4ccccc43)c2=O)cc1 [Example 128] | 5.00 to 6.00 |
| CN1CCN(CCCNC(=O)Nc2ccc(-n3[nH]c4c(nnc5ccccc54)c3=O)cc2)CC1 [Example 129] | > 6.00 |
| CN(C)CCNC(=O)Nc1ccc(-n2[nH]c3c(nnc4ccccc43)c2=O)cc1 [Example 130] | > 6.00 |
| C=CCNC(=O)Nc1ccc(-n2[nH]c3c(nnc4ccccc43)c2=O)cc1 [Example 131] | > 6.00 |
| O=C(NCCN1CCOCC1)Nc1ccc(-n2[nH]c3c(nnc4ccccc43)c2=O)cc1 [Example 132] | > 6.00 |
| COCCCNC(=O)Nc1ccc(-n2[nH]c3c(nnc4ccccc43)c2=O)cc1 [Example 133] | 5.00 to 6.00 |
| O=C(NCCCNC1CCCCC1)Nc1ccc(-n2[nH]c3c(nnc4ccccc43)c2=O)cc1 [Example 134] | > 6.00 |
| CN1C(C)(C)CC(NC(=O)Nc2ccc(-n3[nH]c4c(nnc5ccccc54)c3=O)cc2)CC1(C)C [Example 135] | 5.00 to 6.00 |
| CC(CCCC(C)(C)O)NC(=O)Nc1ccc(-n2[nH]c3c(nnc4ccccc43)c2=O)cc1 (centres unmarked) [Example 137] | 5.00 to 6.00 |
| CC(C)CNC(=O)Nc1ccc(-n2[nH]c3c(nnc4ccccc43)c2=O)cc1 [Example 138] | 5.00 to 6.00 |
| COCCNC(=O)Nc1ccc(-n2[nH]c3c(nnc4ccccc43)c2=O)cc1 [Example 140] | 5.00 to 6.00 |
| CC(C)NCCNC(=O)Nc1ccc(-n2[nH]c3c(nnc4ccccc43)c2=O)cc1 [Example 141] | > 6.00 |
| CNCCNC(=O)Nc1ccc(-n2[nH]c3c(nnc4ccccc43)c2=O)cc1 [Example 142] | > 6.00 |
| CCNCCNC(=O)Nc1ccc(-n2[nH]c3c(nnc4ccccc43)c2=O)cc1 [Example 143] | > 6.00 |
| CCCNCCNC(=O)Nc1ccc(-n2[nH]c3c(nnc4ccccc43)c2=O)cc1 [Example 144] | > 6.00 |
